Like-named read-outs stand apart in the source and are kept apart here.
Key:
[1] = target: T1, adenosine A3 receptors in Jurkat cell membranes (Homo sapiens, UniProt P0DMS8); assay: Saturation of Compound 1 binding to A3 receptors in Jurkat cell membranes
T1 construct: characterization of A3 receptors in some human tumor cell lines; endogenous in cells; host or cells: Jurkat (human T-cell leukaemia), membranes
T1 sequence (P0DMS8 1-318): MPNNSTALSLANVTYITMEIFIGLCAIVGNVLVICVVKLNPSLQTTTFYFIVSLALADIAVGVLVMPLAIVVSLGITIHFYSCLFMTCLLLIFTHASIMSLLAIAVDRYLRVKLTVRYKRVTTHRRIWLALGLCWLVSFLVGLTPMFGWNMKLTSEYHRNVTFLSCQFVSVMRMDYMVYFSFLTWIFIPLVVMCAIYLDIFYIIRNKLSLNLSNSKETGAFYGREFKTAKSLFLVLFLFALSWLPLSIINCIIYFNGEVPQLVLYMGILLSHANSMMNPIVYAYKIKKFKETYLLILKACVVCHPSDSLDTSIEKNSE

[2] = target: T2, rat brain A1 adenosine receptor (Rattus norvegicus, UniProt P25099); assay: Rat A1 adenosine receptor binding assay, displacement of [^3 H]CHA; conditions: rat brain membranes, [^3 H]CHA 1 nM; read-out: rA1 (Ki)
T2 construct: membranes of rat brain; from tissue; host or cells: whole brain membranes of male Wistar rats
T2 sequence (P25099 1-326): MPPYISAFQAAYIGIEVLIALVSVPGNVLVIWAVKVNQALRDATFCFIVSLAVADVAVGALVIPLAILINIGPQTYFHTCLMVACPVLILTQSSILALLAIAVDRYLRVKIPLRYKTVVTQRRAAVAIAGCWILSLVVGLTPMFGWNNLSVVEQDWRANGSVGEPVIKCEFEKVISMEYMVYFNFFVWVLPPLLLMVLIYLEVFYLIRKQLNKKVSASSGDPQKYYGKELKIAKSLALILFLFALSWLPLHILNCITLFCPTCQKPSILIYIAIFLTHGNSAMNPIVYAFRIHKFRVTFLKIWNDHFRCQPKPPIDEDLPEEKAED
Description: Male Wistar rats (200-250 g) were decapitated and the whole brain and striatum dissected on ice. […] After 30 min incubation at 37° C., the membranes were centrifuged and pellets were stored at -80° C. Prior to freezing, an aliquot of homogenate was removed for protein assay with bovine albumin as reference standard. Binding assays were performed on rat brain and striatum membranes respectively, in the presence of 10 mM MgCl2 at 25° C. All buffer solutions were adjusted to maintain a constant pH of 7.4.
Separation of bound from free radio ligand was performed by rapid filtration through Whatman GF/B filters which were washed three times with ice-cold buffer. Filter bound radioactivity was measured by scintillation spectrometry after addition of 5 mL of Aquassure. […] Incubation time ranged from 150 min. at 0° C. to 75 min at 30° C. according to the results of previous time-course experiments. Ki values were calculated from the Cheng-Prusoff equation. All binding data were analyzed using the nonlinear regression curve-fitting computer program LIGAND.

[3] = target: T3, adenosine A3 receptors in HL60 membranes (Homo sapiens, UniProt P0DMS8); assay: Saturation of Compound 1 binding to A3 receptors in HL60 membranes
T3 construct: characterization of A3 receptors in some human tumor cell lines; endogenous in cells; host or cells: HL60 (human promyelocytic leukaemia), membranes
T3 sequence (P0DMS8 1-318): T1 sequence (P0DMS8 1-318)

JURKAT cell line = assay: [^125 I]-ABMECA binding on cell membranes of tumor cell lines: JURKAT; design: species or system human
Description: (§1) A series of binding experiments were performed on various tumor cell lines, using […] [^125 I]-ABMECA, with unspecific binding determined in the presence of 50 μM R-PIA or 200 μM NECA, on cell membranes of the cell lines. Specific binding was determined by substracting unspecific binding from total binding. The cell lines were the HL 60, NB4, SKN-MC, SKN-Be2C, SKN-SH and JURKAT cell lines.

SKN-SH cell line = assay: [^125 I]-ABMECA binding on cell membranes of tumor cell lines: SKN-SH
Description: as §1

HL 60 cell line = assay: [^125 I]-ABMECA binding on cell membranes of tumor cell lines: HL 60; design: species or system human
Description: as §1

SKN-MC cell line = assay: [^125 I]-ABMECA binding on cell membranes of tumor cell lines: SKN-MC
Description: as §1

SKN-Be2C cell line = assay: [^125 I]-ABMECA binding on cell membranes of tumor cell lines: SKN-Be2C
Description: as §1

[4] = target: T4, human A3 receptors expressed in the JURKAT cell line (Homo sapiens, UniProt P0DMS8); conditions: Jurkat cell membranes, [^125 I]AB-MECA
T4 sequence (P0DMS8 1-318): T1 sequence (P0DMS8 1-318)
Description: Jurkat cell lines appeared to provide the best results of the cell lines tested. A saturation experiment was performed using Jurkat cell lines at 37° C., with a one hour incubation period, using [^125 I]-ABMECA (0.125-1.5 nM), with nonspecific binding measured using RPIA (50 μM).

NB4 cell line = assay: [^125 I]-ABMECA binding on cell membranes of tumor cell lines: NB4
Description: as §1

[5] = target: T5, human A3 receptors expressed in HEK 293 cells (Homo sapiens, UniProt P0DMS8); conditions: saturation, n=3
T5 sequence (P0DMS8 1-318): T1 sequence (P0DMS8 1-318)
Description: Incubation time was 60 min at 37° C., according to the results of previous time-course experiments. Bound and free radioactivity were separated by filtering the assay mixture through Whatman GF/B glass-fiber filters using a Brandel cell harvester. Non-specific binding was defined as binding in the presence of 50 μM R-PIA and was about 30% of total binding. The incubation mixture was diluted with 3 ml of ice-cold incubation buffer, rapidly vacuum filtered and the filter was washed three times with 3 ml of incubation buffer. The filter bound radioactivity was counted in a Beckman gamma 5500B γ counter. The protein concentration can be determined according to a Bio-Rad method (3) with bovine albumin as reference standard.
Non-specific binding was defined in the presence of 50 μM R-PIA and was about 30% of total binding. Incubation time was 60 min at 37° C., according to the results of previous time-course experiments. Bound and free radioactivity was separated by filtering the assay mixture through Whatman GF/B glass-fiber filters using a Brandel cell harvester.

cerebral ischemia = conditions: chronic administration; cited from earlier work

CCCn1cc2c(nc(NC(=O)Nc3ccc(OC)cc3)n3nc(-c4ccco4)nc23)n1 [Compound 1, 5-[[(4-Methoxyphenyl)amino]carbonyl]amino-8-propyl-2-(2-furyl)-pyrazolo[4,3-e] 1,2,4-triazolo[1,5-c]pyrimidine]
density of adenosine A3 receptors detected ([1]; Jurkat cells, tritiated analogue of Compound 1): approximately 1300 fmol/mg protein
Bmax value ([1]; Jurkat membranes, 0.2 to 15 nM, n=3): 1.30±0.03 pmol/mg protein
Ki [2]: > 10 µM
density of adenosine A3 receptors detected ([3]; HL60 cells, tritiated analogue of Compound 1): ~650 fmol/mg protein
Bmax value ([3]; HL60 membranes, 0.1 to 10 nM, n=3): 626±42 fmol/mg protein

CNC(=O)[C@H]1O[C@@H](n2cnc3c(NCc4ccc(N)c([125I])c4)ncnc32)[C@H](O)[C@@H]1O [[^125 I]AB-MECA, N^6-(4-amino-3-iodobenzyl)-5'-(N-methylcarbamoyl)adenosine]
Percent Specific Binding (JURKAT cell line; JURKAT): 38%
Total Binding (JURKAT cell line; JURKAT cell membranes): 7599
Unspecific Binding (JURKAT cell line; JURKAT, 50 μM R-PIA or 200 μM NECA): 4753
Specific Binding (JURKAT cell line; JURKAT, total minus unspecific): 2846 cpm
Percent Specific Binding (SKN-SH cell line; SKN-SH): 3%
Total Binding (SKN-SH cell line; SKN-SH cell membranes): 2671
Unspecific Binding (SKN-SH cell line; SKN-SH, 50 μM R-PIA or 200 μM NECA): 2580
Specific Binding (SKN-SH cell line; SKN-SH, total minus unspecific): 91 cpm
Percent Specific Binding (HL 60 cell line; HL 60): 20%
Unspecific Binding (HL 60 cell line; HL 60, 50 μM R-PIA or 200 μM NECA): 2791
Specific Binding (HL 60 cell line; HL 60, total minus unspecific): 693 cpm
Total Binding (HL 60 cell line; HL 60 cell membranes): 3484
Percent Specific Binding (SKN-MC cell line; SKN-MC): 17%
Total Binding (SKN-MC cell line; SKN-MC cell membranes): 7528
Unspecific Binding (SKN-MC cell line; SKN-MC, 50 μM R-PIA or 200 μM NECA): 6220
Specific Binding (SKN-MC cell line; SKN-MC, total minus unspecific): 1308 cpm
Percent Specific Binding (SKN-Be2C cell line; SKN-Be2C): 24%
Total Binding (SKN-Be2C cell line; SKN-Be2C cell membranes): 6000
Unspecific Binding (SKN-Be2C cell line; SKN-Be2C, 50 μM R-PIA or 200 μM NECA): 4585
Specific Binding (SKN-Be2C cell line; SKN-Be2C, total minus unspecific): 1415 cpm
Bmax (density of A3 receptor) [4]: approximately 300 fmol/mg protein
Bmax (density of A3 receptor) ([4]; listed as [^125 I]-ABMECA): 290 fmol/mg protein
Percent Specific Binding (NB4 cell line; NB4): 19%
Unspecific Binding (NB4 cell line; NB4, 50 μM R-PIA or 200 μM NECA): 2740
Specific Binding (NB4 cell line; NB4, total minus unspecific): 637 cpm
Total Binding (NB4 cell line; NB4 cell membranes): 3377
Bmax value [5]: 62±1 fmol/mg protein

CNC(=O)[C@H]1O[C@@H](n2cnc3c(NCc4cccc(I)c4)ncnc32)[C@H](O)[C@@H]1O [IB-MECA]
protection against cerebral ischemia (cerebral ischemia): protects against cerebral ischemia
